Data taken from paper PMC8566451, “Lead optimization of novel quinolone chalcone compounds by a structure–activity relationship (SAR) study to increase efficacy and metabolic stability” (Scientific Reports, 2021).

Experiments:
HeLa = test: Sulforhodamine B (SRB) assay; type: cell-based; details: Homo sapiens; for GI50: HeLa cervical cancer cells, 48 h, SRB; for IC50: HeLa, Supplementary Table S1, SRB
Description: (§1) The human MDA-MB-231, MCF7, MDA-MB-468, RPMI-8226 and HeLa cell lines were purchased from ATCC and maintained in Dulbecco's Modified Eagle Medium (DMEM)—high glucose supplemented with 10% fetal bovine serum (FBS) and antibiotics/antimycotics. Cell line authentication was carried out by Genetica DNA Laboratories (Burlington, NC) using a short tandem repeat (STR) profiling method (March 2015; July 2015; September 2016). Melanoma cells E-055 (MZ-Mel-3), E-097 (Mel-SOE), E-112 (UKRV-Mel-38), E-157 (UKRV-Mel-17) were obtained from the European Searchable Tumour Line Database (ESTDAB) cell bank (a kind gift of Dr. Graham Pawelec, Tubingen University, Germany). MDA-MB-435 was purchased from the Division of Cancer Treatment and Diagnosis Tumor Repository. All melanoma cells were cultured in Roswell Park Memorial Institute (RPMI) medium supplemented with 10% FBS and P/S/antimycotics. Primary human epidermal melanocytes from normal adult abdominal skin were purchased from ATCC (cat # PCS-200–013) and Cell Applications (cat#104-05a). The melanocytes were cultured in the media supplied by the companies.
(§2) The SRB assay was used to assess drug-induced cytotoxicity and cell proliferation as previously described[2],[33],[34] with a few modifications. Briefly, cells were plated 10,000 to 25,000 cells/cm^2 in 96-well plates (100 µl medium) and allowed to adhere overnight. The cell counts were different for each cell line to ensure optimal cell growth for the duration of the assay. Eight different concentrations of compound solutions using 2–4 times serial dilutions (100 µl). Cells were then incubated for an additional 48 h and then fixed with 100 µl ice-cold 10% (w/v) trichloroacetic acid (TCA) (without removing the cell medium, final concentration, 3.3% of TCA) and stained with 0.4% SRB (w/v) in 1% acetic acid (v/v). The relative growth rate (%) was calculated for each of the compound concentrations according to the following formula: 100 * (T − T0)/(C − T0), in which T is the optical density (OD) after exposure to a certain concentration of the compound after 48 h, T0 is the OD at the start of drug exposure (time zero) and C is the control growth. The GI50 for each compound was obtained from a non-linear sigmoidal dose–response (variable slope) curve fitted by GraphPad Prism v.4.03 software.

MCF7 = test: Sulforhodamine B (SRB) assay; type: cell-based; details: Homo sapiens; for GI50: MCF7 breast cancer cells, 48 h, SRB; for IC50: MCF7, Supplementary Table S1, SRB
Description: as §1, §2

MDA-MB231 = test: Sulforhodamine B (SRB) assay; type: cell-based; details: Homo sapiens, MDA-MB-231; for GI50: MDA-MB231 breast cancer cells, 48 h, SRB; for IC50: Supplementary Table S1, SRB
Description: as §1, §2

MDA-MB435 = test: Sulforhodamine B (SRB) assay; type: cell-based; details: Homo sapiens, MDA-MB-435, MDA-MB435 cells, 48 h
Description: as §1, §2

MDA-MB468 = test: Sulforhodamine B (SRB) assay; type: cell-based; details: Homo sapiens, MDA-MB-468, MDA-MB468 breast cancer cells, 48 h
Description: as §1, §2

MZ-Mel-3 = test: Sulforhodamine B (SRB) assay; type: cell-based; details: MZ-Mel-3 melanoma cells, 48 h
Description: as §1, §2

Mel-SOE = test: Sulforhodamine B (SRB) assay; type: cell-based; details: Mel-SOE melanoma cells, 48 h
Description: as §1, §2

UKRV-Mel-17 = test: Sulforhodamine B (SRB) assay; type: cell-based; details: UKRV-Mel-17 melanoma cells, 48 h
Description: as §1, §2

UKRV-Mel-38 = test: Sulforhodamine B (SRB) assay; type: cell-based; details: UKRV-Mel-38 melanoma cells, 48 h
Description: as §1, §2

MDA-MB231-TaxR = test: Sulforhodamine B (SRB) assay; type: cell-based; details: Homo sapiens, MDA-MB231-TaxR paclitaxel-resistant breast cancer cells, 48 h
Description: We had initially determined that quinolone chalcones were promising anti-proliferative through a first round screening and identified CTR-17 and CTR-20 as favorable structures for anticancer activity. […] We carried out a comparative SAR study to determine if we could further optimize the quinolone chalcone to maximize efficacy. The Sulforhodamine B (SRB) assay was used to measure the anti-proliferative/cell killing activities of CTRs, for which several different cell lines were use: the cervical cancer HeLa, the breast cancer cell lines MDA-MB231, MDA-MB468, MDA-MB231TaxR (an induced paclitaxel-resistant sub-cell line of the MDA-MB231[9]) and MCF7. In addition, a subset was tested against the melanoma cell lines MZ-MEL-3.1, Mel-SOE, UKRV-Mel-38, UKRV-Mel-17 and MDA-MB-435 (Table 1, Supplemental Table S1).
as §2

porcine tubulin = target: T1, porcine tubulin (Sus scrofa, UniProt P02550+P02554); test: In vitro tubulin polymerization assay; type: biochemical; details: 3 µM compound, 20 µM porcine tubulin, 37 °C, 60 min
T1 construct: purchased Cytoskeleton Inc., Denver, CO BK011P
Description: Spontaneous polymerization of 20 µM porcine tubulin was initiated with the addition of 1 mmol/L GTP at 37 °C and monitored every minute for 60 min in the presence of the indicated concentration of CTR-21, CTR-32, nocodazole, paclitaxel, or a DMSO vehicle control. To make the graph simpler, only 3 µM concentration is shown. […] A modified Dixon plot was used to determine the inhibitory concentration of CTR-21 and CTR-32 (Ki).
Microtubule assembly was assessed using a Tubulin Polymerization assay kit (BK011P; Cytoskeleton Inc., Denver, CO). […] Polymerization was started by incubating at 37 °C and followed by absorbance readings every 1 min at 340 nm for 1 h using a Synergy H4 plate reader.

RPMI-8226 = test: Sulforhodamine B (SRB) assay; type: cell-based; details: Homo sapiens, Supplementary Table S1, SRB
Description: as §1, §2

[1] = system: cancer cell lines (breast cancer, melanoma, cervical cancer); test: SRB assay, average GI50 over cancer cell lines; type: cell-based; details: average over the cell lines of Table 1 or Supplemental Table S1; read-out: average GI50
Description: as §2

T1 sequence (P02554 whole entry): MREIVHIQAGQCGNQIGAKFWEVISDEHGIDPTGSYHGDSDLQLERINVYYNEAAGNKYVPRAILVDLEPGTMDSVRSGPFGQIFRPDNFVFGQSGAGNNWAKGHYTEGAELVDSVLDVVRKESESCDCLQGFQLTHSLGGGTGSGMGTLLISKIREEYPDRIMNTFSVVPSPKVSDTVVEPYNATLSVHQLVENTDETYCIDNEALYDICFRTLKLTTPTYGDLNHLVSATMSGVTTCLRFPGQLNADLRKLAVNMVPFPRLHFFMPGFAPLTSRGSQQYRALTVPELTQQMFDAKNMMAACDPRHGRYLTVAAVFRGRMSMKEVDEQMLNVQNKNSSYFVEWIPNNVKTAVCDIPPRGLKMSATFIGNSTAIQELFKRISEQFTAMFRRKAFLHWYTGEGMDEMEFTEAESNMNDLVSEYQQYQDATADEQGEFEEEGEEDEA
T1 sequence (P02550 whole entry): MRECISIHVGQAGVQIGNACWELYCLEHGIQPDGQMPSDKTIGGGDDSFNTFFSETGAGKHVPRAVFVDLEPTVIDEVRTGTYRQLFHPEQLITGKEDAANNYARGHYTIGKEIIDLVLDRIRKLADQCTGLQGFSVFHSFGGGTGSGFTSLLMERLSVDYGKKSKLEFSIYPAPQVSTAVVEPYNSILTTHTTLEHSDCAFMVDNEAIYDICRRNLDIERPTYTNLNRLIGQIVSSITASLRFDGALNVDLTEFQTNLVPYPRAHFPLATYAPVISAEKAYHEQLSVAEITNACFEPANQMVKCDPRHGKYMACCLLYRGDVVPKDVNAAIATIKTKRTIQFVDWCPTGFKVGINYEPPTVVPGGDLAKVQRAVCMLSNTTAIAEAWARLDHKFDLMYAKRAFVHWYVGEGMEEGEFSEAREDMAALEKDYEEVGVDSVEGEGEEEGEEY

Row | SMILES | GI50 (HeLa) | GI50 (MCF7) | GI50 (MDA-MB231) | GI50 (MDA-MB435) | GI50 (MDA-MB468) | GI50 (MZ-Mel-3) | GI50 (Mel-SOE) | GI50 (UKRV-Mel-17) | GI50 (UKRV-Mel-38) | GI50 (MDA-MB231-TaxR) | effect on tubulin polymerization (porcine tubulin) | IC50 (HeLa) | IC50 (MCF7) | IC50 (MDA-MB231) | IC50 (RPMI-8226) | GI50 [1]
1 | CC(=O)O[C@H]1C(=O)[C@@]2(C)[C@H]([C@H](OC(=O)c3ccccc3)[C@]3(O)C[C@H](OC(=O)[C@H](O)[C@@H](NC(=O)c4ccccc4)c4ccccc4)C(C)=C1C3(C)C)[C@]1(OC(C)=O)CO[C@@H]1C[C@@H]2O [Tax, paclitaxel, reference compound] | 8 ± 1 nM | 6 ± 1 nM | 3 ± 1 nM | 4 ± 1 nM | 9 ± 3 nM | 58 ± 15 nM | 60 ± 16 nM | 14 ± 4 nM | 6 ± 1 nM | 131 ± 35 nM | shorter nucleation phase, steeper growth phase, and reaches steady state quicker | – | – | – | – | –
2 | COc1ccc(OC)c(C(=O)/C=C/c2cc3ccccc3[nH]c2=O)c1 [CTR-26, (E)-3-(3-(2,5-dimethoxyphenyl)-3-oxoprop-1-enyl)quinolin-2(1H)-one] | – | – | – | – | – | – | – | – | – | – | – | 290 ± 20 nM | 320 ± 10 nM | 960 ± 150 nM | 200 ± 30 nM | 443 nM
3 | COc1ccc(F)cc1C(=O)/C=C/c1cc2ccccc2[nH]c1=O [CTR-29, (E)-3-(3-(5-fluoro-2-methoxyphenyl)-3-oxoprop-1-enyl)quinolin-2(1H)-one] | – | – | – | – | – | – | – | – | – | – | – | 90 ± 20 nM | 100 ± 10 nM | 210 ± 20 nM | 70 ± 10 nM | 118 nM
4 | COc1ccc2[nH]c(=O)c(/C=C/C(=O)c3ccccc3OC)cc2c1 [CTR-20, (E)-6-Methoxy-3-(3-(2-methoxyphenyl)-3-oxoprop-1-enyl) quinolin-2(1H)-one] | 124 ± 36 nM | 194 ± 21 nM | 216 ± 21 nM | 90 ± 10 nM | 408 ± 12 nM | 98 ± 21 nM | 338 ± 78 nM | 283 ± 57 nM | 338 ± 33 nM | 966 ± 163 nM | – | – | – | – | – | 232 nM
5 | COc1ccc(OC)c(C(=O)/C=C/c2cc3cc(OC)ccc3[nH]c2=O)c1 [CTR-34, (E)-3-(3-(2,5-dimethoxyphenyl)-3-oxoprop-1-enyl)-6-methoxyquinolin-2(1H)-one] | – | – | – | – | – | – | – | – | – | – | – | 640 ± 30 nM | 850 ± 60 nM | 840 ± 80 nM | 260 ± 20 nM | 648 nM
6 | COc1cccc(OC)c1C(=O)/C=C/c1cc2ccccc2[nH]c1=O [CTR-25, (E)-3-(3-(2,6-dimethoxyphenyl)-3-oxoprop-1-enyl)quinolin-2(1H)-one] | – | – | – | – | – | – | – | – | – | – | – | 1320 ± 20 nM | 1690 ± 70 nM | 2600 ± 180 nM | 770 ± 210 nM | 1600 nM
7 | COc1cc2cc(/C=C/C(=O)c3ccccc3OC)c(=O)[nH]c2cc1OC [CTR-24, (E)-6,7-dimethoxy-3-(3-(2-methoxyphenyl)-3-oxoprop-1-enyl)quinolin-2(1H)-one] | – | – | – | – | – | – | – | – | – | – | – | 1340 ± 200 nM | 1540 ± 360 nM | 2020 ± 10 nM | 1040 ± 130 nM | 1500 nM
8 | COc1cc(F)ccc1C(=O)/C=C/c1cc2ccccc2[nH]c1=O [CTR-30, (E)-3-(3-(4-fluoro-2-methoxyphenyl)-3-oxoprop-1-enyl)quinolin-2(1H)-one] | – | – | – | – | – | – | – | – | – | – | – | 1500 ± 130 nM | 1470 ± 150 nM | 1420 ± 80 nM | 200 ± 30 nM | –
9 | COc1ccccc1C(=O)/C=C/c1cc2cc(C)ccc2[nH]c1=O [CTR-18, (E)-3-(3-(2-methoxyphenyl)-3-oxoprop-1-enyl)-6-methylquinolin-2(1H)-one] | 443 ± 112 nM | 510 ± 38 nM | 530 ± 119 nM | 307 ± 7 nM | 304 ± 2 nM | 239 ± 13 nM | 817 ± 34 nM | 596 ± 162 nM | 746 ± 177 nM | 1210 ± 179 nM | – | – | – | – | – | 499 nM
10 | COc1ccc(C(=O)/C=C/c2cc3ccccc3[nH]c2=O)c(OC)c1 [CTR-27, (E)-3-(3-(2,4-dimethoxyphenyl)-3-oxoprop-1-enyl)quinolin-2(1H)-one] | – | – | – | – | – | – | – | – | – | – | – | 1800 ± 270 nM | 2200 ± 350 nM | 2690 ± 240 nM | 770 ± 100 nM | –
11 | COc1ccccc1C(=O)/C=C/c1cc2ccccc2[nH]c1=O [CTR-17, (E)-3-(3-(2-methoxyphenyl)-3-oxoprop-1-enyl)quinolin-2(1H)-one] | 280 ± 78 nM | 485 ± 97 nM | 657 ± 72 nM | 290 ± 66 nM | 320 ± 26 nM | 227 ± 30 nM | 786 ± 52 nM | 504 ± 33 nM | 626 ± 154 nM | 1300 ± 83 nM | – | – | – | – | – | 464 nM
12 | COc1ccc2[nH]c(=O)c(/C=C/C(=O)c3cc(F)ccc3OC)cc2c1 [CTR-37, (E)-3-(3-(5-fluoro-2-methoxyphenyl)-3-oxoprop-1-enyl)-6-methoxyquinolin-2(1H)-one] | – | – | – | – | – | – | – | – | – | – | – | 140 ± 30 nM | 320 ± 40 nM | 390 ± 90 nM | 100 ± 30 nM | –
13 | COc1ccc2[nH]c(=O)c(/C=C/C(=O)c3ccc(OC(F)(F)F)cc3OC)cc2c1 [CTR-36, (E)-6-methoxy-3-(3-(2-methoxy-4-(trifluoromethoxy)phenyl)-3-oxoprop-1-enyl)quinolin-(1H)-one] | – | – | – | – | – | – | – | – | – | – | – | 1110 ± 130 nM | 1230 ± 80 nM | 730 ± 60 nM | 150 ± 20 nM | 805 nM
14 | COc1ccc2[nH]c(=O)c(/C=C/C(=O)c3ccc(F)cc3OC)cc2c1 [CTR-38, (E)-3-(3-(4-fluoro-2-methoxyphenyl)-3-oxoprop-1-enyl)-6-methoxyquinolin-2(1H)-one] | – | – | – | – | – | – | – | – | – | – | – | 60 ± 10 nM | 140 ± 20 nM | 150 ± 10 nM | 40 ± 10 nM | 98 nM
15 | COc1ccc(C(=O)/C=C/c2cc3cc(OC)ccc3[nH]c2=O)c(OC)c1 [CTR-35, (E)-3-(3-(2,4-dimethoxyphenyl)-3-oxoprop-1-enyl)-6-methoxyquinolin-2(1H)-one] | – | – | – | – | – | – | – | – | – | – | – | 2070 ± 250 nM | 2120 ± 360 nM | 2350 ± 260 nM | 1320 ± 100 nM | 2000 nM
16 | CCOc1ccccc1C(=O)/C=C/c1cc2cc(OC)ccc2[nH]c1=O [CTR-40, (E)-3-(3-(2-ethoxyphenyl)-3-oxoprop-1-enyl)-6-methoxyquinolin-2(1H)-one] | 19 ± 1 nM | 41 ± 5 nM | 30 ± 4 nM | 23 nM | 77 ± 13 nM | 11 nM | 53 ± 4 nM | 28 ± 5 nM | 42 ± 11 nM | 54 ± 13 nM | – | 40 nM | 90 ± 10 nM | 130 ± 20 nM | 50 ± 20 nM | 36 nM
